{
  "source": "patent US8236762B2",
  "about": "“Peptide-cytotoxic conjugates” (IPSEN Pharma S.A.S., priority 2006, dated 2012)",
  "key": {"hSSTR-3": {"molecular_target": "T1, hSSTR-3 (Homo sapiens, UniProt P32745)", "T1 construct": "expressed in transfected cells; host or cells: CHO-K1", "T1 sequence (P32745 whole entry)": "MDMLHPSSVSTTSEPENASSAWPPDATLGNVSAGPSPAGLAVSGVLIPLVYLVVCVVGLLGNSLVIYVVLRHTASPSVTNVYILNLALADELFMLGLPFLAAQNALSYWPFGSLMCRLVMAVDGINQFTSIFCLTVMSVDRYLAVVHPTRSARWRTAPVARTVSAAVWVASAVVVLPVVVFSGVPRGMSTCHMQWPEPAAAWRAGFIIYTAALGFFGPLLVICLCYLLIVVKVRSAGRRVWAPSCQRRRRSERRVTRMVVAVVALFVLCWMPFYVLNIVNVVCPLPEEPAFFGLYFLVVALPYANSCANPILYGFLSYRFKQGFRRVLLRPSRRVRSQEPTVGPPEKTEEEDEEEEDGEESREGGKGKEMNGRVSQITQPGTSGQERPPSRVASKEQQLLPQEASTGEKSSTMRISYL", "test": "Somatostatin receptor radioligand binding, hSSTR-3 (CHO-K1 membranes)", "conditions": "read-out: Ki hSSTR3 ± (SEM)", "protocol": "(§3) Membranes for in vitro receptor binding assays were obtained by homogenizing (Polytron setting 6, 15 sec) CHO-K1 cells expressing human somatostatin receptor subtypes hSSTR-1, hSSTR-2, hSSTR-3, hSSTR-4 or hSSTR-5 in ice-cold 50 mM Tris-HCl. The homogenized cells were centrifuged twice at 39,000 g for 10 minutes with an intermediate resuspension in fresh buffer. The final pellets were resuspended in 10 mM Tris-HCl to prepare the cell membrane homogenate for use in the binding assay.\n(§4) For the hSSTR-1, hSSTR-3, and hSSTR-4 assays, aliquots of the membrane preparations were incubated for 90 minutes at 25° C. with 0.05 nM [^125I-Tyr11]SRIF-14 in 50 mM HEPES (pH 7.4) buffer containing 0.2% BSA and 5 mM MgCl2. The final assay volume was 0.3 ml. For the hSSTR-2 and hSSTR-5 assays, [^125I]-[4-(2-hydroxyethyl)]-1-piperazinylacetyl-D-Phe-c(Cys-Tyr-D-Trp-Lys-Abu-Cys)-Thr-NH2 (0.05 nM) and [^125I]-D-Phe-c(Cys-Tyr-D-Trp-Lys-Val-Cys)-Thr-NH2 were employed as the radioligands, respectively.\n(§5) The cell membrane homogenate was incubated with the radioligands for 90 minutes at 25° C. The incubations were terminated by rapid filtration through GF/C filters pre-soaked in 0.3% polyethylenimine using a Brandel® filtration manifold (Gaithersberg, Md., U.S.A.). Each tube and filter was washed three times with 5-ml aliquots of ice-cold buffer. Specific binding was defined as the total radioligand bound minus that bound in the presence of 1000 nM SRIF-14 (for hSSTR-1, hSSTR-3, hSSTR-4 or hSSTR-5), or 1000 nM DPhe-c(Cys-Tyr-D-Trp-Lys-Abu-Cys)-Thr-NH2 for hSSTR-2."}, "hSSTR-4": {"molecular_target": "T2, hSSTR-4 (Homo sapiens, UniProt P31391)", "T2 construct": "expressed in transfected cells; host or cells: CHO-K1", "T2 sequence (P31391 whole entry)": "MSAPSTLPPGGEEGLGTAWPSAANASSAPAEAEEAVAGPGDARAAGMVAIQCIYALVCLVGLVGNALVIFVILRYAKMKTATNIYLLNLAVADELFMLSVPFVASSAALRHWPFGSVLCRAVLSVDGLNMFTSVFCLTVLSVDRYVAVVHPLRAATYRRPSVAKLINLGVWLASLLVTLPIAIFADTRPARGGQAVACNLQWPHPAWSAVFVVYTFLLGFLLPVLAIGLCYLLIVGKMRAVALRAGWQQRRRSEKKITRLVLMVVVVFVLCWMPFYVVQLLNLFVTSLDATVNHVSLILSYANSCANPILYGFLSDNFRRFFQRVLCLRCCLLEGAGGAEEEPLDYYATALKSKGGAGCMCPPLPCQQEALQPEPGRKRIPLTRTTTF", "test": "Somatostatin receptor radioligand binding, hSSTR-4 (CHO-K1 membranes)", "conditions": "read-out: Ki hSSTR4 ± (SEM)", "protocol": "as §3, §4, §5"}, "[1]": {"test": "Half-life determination in mouse plasma (LC-MS)", "type": "in vitro ADME", "conditions": "37° C.", "outline": "(§1)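 Compound samples of about 50–500 μg/ml were added to 450 μl human or mouse plasma and incubated at 37 °C. Aliquots taken from 0 to 48 h were precipitated with acetonitrile. Supernatants were analysed by LC-MS (positive-mode ESI, C8 column, acetic acid water/acetonitrile gradient).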"}, "hSSTR-5": {"molecular_target": "T3, hSSTR-5 (Homo sapiens, UniProt P35346)", "T3 construct": "expressed in transfected cells; host or cells: CHO-K1", "T3 sequence (P35346 whole entry)": "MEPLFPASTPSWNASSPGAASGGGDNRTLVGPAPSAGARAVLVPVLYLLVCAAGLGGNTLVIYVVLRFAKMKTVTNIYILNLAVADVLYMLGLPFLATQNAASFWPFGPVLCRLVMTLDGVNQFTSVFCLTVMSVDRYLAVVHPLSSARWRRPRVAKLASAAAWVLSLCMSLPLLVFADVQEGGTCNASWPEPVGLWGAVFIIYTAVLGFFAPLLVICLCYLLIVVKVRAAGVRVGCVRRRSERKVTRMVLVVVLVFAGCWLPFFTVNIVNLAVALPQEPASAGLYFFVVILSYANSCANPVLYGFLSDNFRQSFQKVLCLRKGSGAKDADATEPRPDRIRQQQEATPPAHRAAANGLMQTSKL", "test": "Somatostatin receptor radioligand binding, hSSTR-5 (CHO-K1 membranes)", "conditions": "read-out: Ki hSSTR5 ± (SEM)", "protocol": "as §3, §4, §5"}, "hSSTR-2": {"molecular_target": "T4, hSSTR-2 (Homo sapiens, UniProt P30874)", "T4 construct": "expressed in transfected cells; host or cells: CHO-K1", "T4 sequence (P30874 whole entry)": "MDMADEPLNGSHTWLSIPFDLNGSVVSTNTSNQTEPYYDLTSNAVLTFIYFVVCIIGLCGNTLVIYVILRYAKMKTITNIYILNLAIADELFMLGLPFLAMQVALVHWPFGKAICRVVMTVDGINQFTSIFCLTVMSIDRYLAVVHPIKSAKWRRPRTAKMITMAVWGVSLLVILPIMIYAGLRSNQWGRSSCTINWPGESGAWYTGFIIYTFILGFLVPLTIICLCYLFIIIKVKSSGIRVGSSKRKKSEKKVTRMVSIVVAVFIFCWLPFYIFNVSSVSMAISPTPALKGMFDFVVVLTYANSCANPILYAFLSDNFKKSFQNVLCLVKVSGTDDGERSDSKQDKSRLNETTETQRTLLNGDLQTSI", "test": "Somatostatin receptor radioligand binding, hSSTR-2 (CHO-K1 membranes)", "conditions": "read-out: Ki hSSTR2 ± (SEM)", "protocol": "as §3, §4, §5"}, "hSSTR-1": {"molecular_target": "T5, hSSTR-1 (Homo sapiens, UniProt P30872)", "T5 construct": "expressed in transfected cells; host or cells: CHO-K1", "T5 sequence (P30872 whole entry)": "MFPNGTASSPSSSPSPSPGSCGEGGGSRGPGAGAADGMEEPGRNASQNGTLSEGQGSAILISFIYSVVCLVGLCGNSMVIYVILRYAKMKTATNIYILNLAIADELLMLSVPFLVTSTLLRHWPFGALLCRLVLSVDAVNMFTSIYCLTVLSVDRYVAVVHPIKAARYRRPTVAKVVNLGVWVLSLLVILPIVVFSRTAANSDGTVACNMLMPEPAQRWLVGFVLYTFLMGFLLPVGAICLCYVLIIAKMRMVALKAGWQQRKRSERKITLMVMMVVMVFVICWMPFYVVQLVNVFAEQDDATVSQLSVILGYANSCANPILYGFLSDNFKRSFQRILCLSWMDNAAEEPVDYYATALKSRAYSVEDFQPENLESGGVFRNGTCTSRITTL", "test": "Somatostatin receptor radioligand binding, hSSTR-1 (CHO-K1 membranes)", "conditions": "read-out: Ki hSSTR1 ± (SEM)"}, "[2]": {"test": "Half-life determination in human plasma (LC-MS)", "type": "in vitro ADME", "conditions": "37° C.", "outline": "as §1"}, "NCI-H69 cells": {"tested_on": "NCI-H69 cells", "test": "In vivo growth assay, NCI-H69 small cell lung carcinoma xenograft in nude mice", "design": "species or system human", "conditions": "female athymic nude mice, qwk×3, i.v.", "protocol": "The mice were housed in microisolators on a 12-hour light cycle at 22° C. (72° F.) and 40%-60% humidity.\nMice were implanted subcutaneously in the flank with 5×10^6 cells of NCI-H69 cells along with an equal volume of Matrigel® Matrix (BD Biosciences, San Jose, Calif., U.S.A.), a solubilized basement membrane preparation extracted from EHS mouse sarcoma, a tumor rich in ECM proteins. The tumors were monitored initially twice weekly and then daily as the neoplasms reached the desired size of approximately 100 mm^3, (100 mg). When the small cell lung carcinomas attained the desired size in calculated tumor weight, the animals were pair-matched on Day 1 into various treatment groups. The estimated tumor weight was calculated using the formula:\n[formula] where w=width and l=length, both measured in mm, of a small cell lung carcinoma.\nAnimals with tumors were then subject to either no treatment at all, treatment with a vehicle control (either saline or water), treatment with a camptothecin only control (7.5 mg/kg) or treatment with a compound according to Formula I or II as discussed above. All treatments were administered intravenously."}, "NCI-H345 cells": {"tested_on": "NCI-H345 cells", "test": "In vivo growth assay, NCI-H345 small cell lung carcinoma xenograft in nude mice", "design": "species or system human", "conditions": "female athymic nude mice, qwk×3, i.v.; 165.6, 138, 55.2 mg/kg", "excerpt": "FIG. 3: Effects of Example 5C against small cell lung carcinoma tumor model H345 SCLC in female athymic nude mice.\n(§2) In other experiments, animals were implanted with human xenografts derived from NCI-H345 cells (human small cell lung carcinoma; […]), A549 cells (non-small cell lung carcinoma), MDA-MB-231 cells (breast cancer) and K562 cells (human chronic myelogenous leukemia; […]) and then subjected to treatment with the compounds of Formula I or II and the appropriate controls as described herein."}, "K562 cells": {"tested_on": "K562 cells", "test": "In vivo growth assay, K562 human chronic myelogenous leukemia xenograft in nude mice", "conditions": "female athymic nude mice, qwk×3, i.v.; 165.6, 138, 55.2 mg/kg", "excerpt": "FIG. 2: Effects of Example 5C against tumor model human chronic myelogenous leukemia K562 in female athymic nude mice.\nas §2"}},
  "note": "“Also recorded” adds a separate entry of the source. Numbered stars: 1 amine (or outer) side, 2 acyl side, 3 side chain; on linkers, the order of the positions; unused ones are H or OH. Bridge positions count the residues as written; N and C are the ends. Square brackets hold non-standard residues; d marks the D form. Peptide text beside a SMILES is read from it. * marks the point of attachment. X1 = CC[C@@]1(O*)C(=O)OCc2c1cc1n(c2=O)Cc2cc3ccccc3nc2-1; Glutaryl = O=C(CCCC(=O)[*:2])[*:1]; AEEA = NCCOCCOCC(=O)O",
  "data": [
    {"compound": "CC[C@@]1(OC(=O)CNC(=O)CCCC(=O)NCCOCCOCC(=O)NCCOCCOCC(=O)NCCOCCOCC(=O)NCCOCCOCC(=O)N[C@@H](CCCCN)C(=O)N[C@H](Cc2ccc(O)cc2)C(=O)N[C@H](Cc2ccc(O)cc2)C(=O)N[C@H]2CSSC[C@@H](C(N)=O)NC(=O)[C@H]([C@@H](C)O)NC(=O)[C@H](CCCCN)NC(=O)[C@@H](Cc3c[nH]c4ccccc34)NC(=O)[C@H](Cc3ccccc3)NC(=O)[C@H](Cc3ccccc3)NC2=O)C(=O)OCc2c1cc1n(c2=O)Cc2cc3ccccc3nc2-1", "note": "[Example 4, Camptothecin-rvGly-Glut-(Doc)4-Lys-D-Tyr-D-Tyr-c(Cys-Phe-Phe-D-Trp-Lys-Thr-Cys)-NH2] ({X1-Gly-Glutaryl-AEEA-AEEA-AEEA-AEEA}-K[dY][dY]CFF[dW]KTC-NH2; disulfide 4-10)", "values": [
      {"measurement": "Ki", "setting": "hSSTR-3", "result": "≥ 1000", "unit": "nM"},
      {"measurement": "Ki", "setting": "hSSTR-4", "result": "≥ 1000", "unit": "nM"},
      {"measurement": "half-life", "setting": "[1]", "result": 4.4, "unit": "h"},
      {"measurement": "Ki", "setting": "hSSTR-5", "result": 481, "unit": "nM"},
      {"measurement": "Ki", "setting": "hSSTR-2", "result": 9.38, "unit": "nM"},
      {"measurement": "Ki", "setting": "hSSTR-1", "result": "≥ 1000", "unit": "nM"},
      {"measurement": "half-life", "setting": "[2]", "result": 3.2, "unit": "h"}
    ]},
    {"compound": "Camptothecin-rvD-Asp-Suc-(Doc)4-Aepa-D-Phe-c(Cys-Tyr-D-Trp-Lys-Abu-Cys)-Thr-NH2 Camptothecin-rvAsp-Suc-(Doc)4-Aepa-D-Phe-c(Cys-Tyr-D-Trp-Lys-Abu-Cys)-Thr-NH2 [Example 5B]", "values": [
      {"measurement": "tumor growth in vivo, NCI-H69 xenograft (FIG. 1)", "setting": "NCI-H69 cells", "result": "Suppression of tumor growth"}
    ]},
    {"compound": "Camptothecin-rvD-Asp-Suc-(Doc)4-Aepa-D-Phe-c(Cys-Tyr-D-Trp-Lys-Abu-Cys)-Thr-NH2 [Example 5C]", "values": [
      {"measurement": "tumor growth in vivo, H345 small cell lung carcinoma xenograft", "setting": "NCI-H345 cells", "result": "Suppression of tumor growth; also recorded: suppressed growth"},
      {"measurement": "tumor growth in vivo, NCI-H69 xenograft (FIG. 1)", "setting": "NCI-H69 cells", "result": "Suppression of tumor growth"},
      {"measurement": "tumor growth in vivo, K562 human chronic myelogenous leukemia xenograft", "setting": "K562 cells", "result": "Suppression of tumor growth; also recorded: suppressed growth"}
    ]}
  ]
}
